Converted amounts (≈) assume the structure as drawn.
Columns and labels:
Enterococcus faecium = assay: Potency index, ratio of Ac-GF-Tic-Oic-GK-Tic-Oic-GF-Tic-Oic-GK-Tic-KKKK-CONH2 MIC to compound MIC for Enterococcus faecium; assay type: functional
Klebsiella aerogenes [1] = assay: Antibacterial activity against carbapenem-resistant Enterobacter aerogenes NCDC819-56 ATCC 13048 by two fold serial dilution method; assay type: functional
Acinetobacter baumannii [2] = assay: Antibacterial activity against Acinetobacter baumannii B5W71 ATCC 15149 by two fold serial dilution method; assay type: functional
[3] = (§1) Antibacterial activity against Salmonella enterica LT2 Typhimurium ATCC 15277 by two fold serial dilution method; assay type: functional
Pseudomonas aeruginosa [4] = assay: Antibacterial activity against Pseudomonas aeruginosa Boston 41501 ATCC 27853 by two fold serial dilution method; assay type: functional
[5] = Antibacterial activity against carbapenem-resistant Klebsiella pneumoniae K6 ATCC 700603 by two fold serial dilution method; assay type: functional, Klebsiella pneumoniae 700603
Enterococcus faecalis = assay: Antibacterial activity against Enterococcus faecalis Portland ATCC 29212 by two fold serial dilution method; assay type: functional; settings: ATCC 29212 Portland
Staphylococcus aureus [6] = assay: Antibacterial activity against methicillin-resistant Staphylococcus aureus USA 300 NRS 384 by two fold serial dilution method; assay type: functional
[7] = Antibacterial activity against Clostridium difficile VIP 10463 ATCC 43255 by two fold serial dilution method; assay type: functional, Clostridium difficile ATCC 43255; settings: Clostridioides difficile
Staphylococcus aureus [8] = assay: Antibacterial activity against Staphylococcus aureus Seattle 1945 ATCC 25923 by two fold serial dilution method; assay type: functional
Streptococcus pneumoniae = assay: Antibacterial activity against Streptococcus pneumoniae 262 ATCC 49619 by two fold serial dilution method; assay type: functional
Neisseria gonorrhoeae = assay: Antibacterial activity against Neisseria gonorrhoeae F-18 ATCC 49226 by two fold serial dilution method; assay type: functional
[9] = Antibacterial activity against Bacillus anthracis Ames NR-3838 by two fold serial dilution method; assay type: functional, Bacillus anthracis str. Ames
[10] = Antibacterial activity against Francisella tularensis SCHU S4 NR-643 by two fold serial dilution method; assay type: functional
[11] = Antibacterial activity against Yersinia pestis CO92 NR641 by two fold serial dilution method; assay type: functional
[12] = system: Burkholderia pseudomallei; assay: Antibacterial activity against Burkholderia pseudomallei AHS 1 NCTC 8016 by two fold serial dilution method; assay type: functional
[13] = system: Mycobacterium tuberculosis; assay: Antibacterial activity against Mycobacterium tuberculosis H37Ra ATCC 2517 by two fold serial dilution method; assay type: functional
CFPAC-1 = assay: Antiproliferative activity against human CFPAC-1 cells after 72 hrs by Celltiter-Glo luminescent cell viability assay; assay type: functional, cell-based; settings: CFPAC-1, 72 h
MCF7 = assay: Antiproliferative activity against human MCF7 cells after 72 hrs by Celltiter-Glo luminescent cell viability assay; assay type: functional, cell-based; settings: MCF7, 72 h
[14] = Antiproliferative activity against human IGROV1 cells after 72 hrs by Celltiter-Glo luminescent cell viability assay; assay type: functional, cell-based; settings: IGROV-1, 72 h
[15] = Antiproliferative activity against human COLO205 cells after 72 hrs by Celltiter-Glo luminescent cell viability assay; assay type: functional, cell-based; settings: COLO 205, 72 h
[16] = Antiproliferative activity against human DLD1 cells after 72 hrs by Celltiter-Glo luminescent cell viability assay; assay type: functional, cell-based; settings: DLD-1, 72 h
[17] = Antiproliferative activity against human UACC62 cells after 72 hrs by Celltiter-Glo luminescent cell viability assay; assay type: functional, cell-based; settings: UACC-62, 72 h
[18] = Antiproliferative activity against human MIAPaCa2 cells after 72 hrs by Celltiter-Glo luminescent cell viability assay; assay type: functional, cell-based; settings: MIA PaCa-2, 72 h
A498 = assay: Antiproliferative activity against human A498 cells after 72 hrs by Celltiter-Glo luminescent cell viability assay; assay type: functional, cell-based; settings: A498, 72 h
[19] = Antiproliferative activity against human PC3 cells after 72 hrs by Celltiter-Glo luminescent cell viability assay; assay type: functional, cell-based; settings: PC-3, 72 h
A549 = assay: Antiproliferative activity against human A549 cells after 72 hrs by Celltiter-Glo luminescent cell viability assay; assay type: functional, cell-based; settings: A549, 72 h
NCI-H69 = assay: Antiproliferative activity against human NCI-H69 cells after 72 hrs by Celltiter-Glo luminescent cell viability assay; assay type: functional, cell-based; settings: NCI-H69, 72 h
RL = assay: Antiproliferative activity against human RL cells after 72 hrs by Celltiter-Glo luminescent cell viability assay; assay type: functional, cell-based
Klebsiella aerogenes [20] = assay: Potency index, ratio of Ac-GF-Tic-Oic-GK-Tic-Oic-GF-Tic-Oic-GK-Tic-KKKK-CONH2 MIC to compound MIC for carbapenem-resistant Enterobacter aerogenes NCDC819-56 ATCC 13048; assay type: functional; settings: pooled result: one value given for 3 cell lines, strains, targets or settings
Acinetobacter baumannii [21] = assay: Potency index, ratio of Ac-GF-Tic-Oic-GK-Tic-Oic-GF-Tic-Oic-GK-Tic-KKKK-CONH2 MIC to compound MIC for Acinetobacter baumannii B5W71 ATCC 15149; assay type: functional
Pseudomonas aeruginosa [22] = assay: Potency index, ratio of Ac-GF-Tic-Oic-GK-Tic-Oic-GF-Tic-Oic-GK-Tic-KKKK-CONH2 MIC to compound MIC for Pseudomonas aeruginosa Boston 41501 ATCC 27853; assay type: functional
[23] = system: Salmonella enterica subsp. enterica serovar Typhimurium str. LT2; assay: as §1; assay type: functional

CC(=O)NCC(=O)N[C@@H](Cc1ccccc1)C(=O)NC1(C(=O)NCC(=O)N2Cc3ccccc3CC2C(=O)N[C@H](CCCCN)C(=O)NC2(C(=O)NCC(=O)N3Cc4ccccc4CC3C(=O)N[C@H](Cc3ccccc3)C(=O)NC3(C(=O)NCC(=O)N4Cc5ccccc5CC4C(=O)NCC(=O)N[C@H](CCCCN)C(=O)N4Cc5ccccc5CC4C(=O)N[C@H](CCCCN)C(=O)N[C@H](CCCCN)C(=O)N[C@H](CCCCN)C(=O)N[C@H](CCCCN)C(N)=O)CCCCC3)CCCCC2)CCCCC1 (stereo partly specified)
Ratio (Enterococcus faecium): 4.3
MIC (Klebsiella aerogenes [1]): > 43 µM
MIC (Acinetobacter baumannii [2]): > 45 µM
MIC [3]: 5.17 µM (≈ 12.5 µg/mL)
MIC (Pseudomonas aeruginosa [4]): 10.3 µM (≈ 25 µg/mL)
MIC [5]: > 43 µM
MIC (Enterococcus faecalis): > 43 µM
MIC (Staphylococcus aureus [6]): > 43 µM
MIC [7]: 2.58 µM (≈ 6.24 µg/mL)
MIC (Staphylococcus aureus [8]): > 43 µM
MIC (Streptococcus pneumoniae): > 43 µM
MIC (Neisseria gonorrhoeae): 41.3 µM (≈ 100 µg/mL)
MIC [9]: 10.3 µM (≈ 25 µg/mL)
MIC [10]: 20.7 µM (≈ 50 µg/mL)
MIC [11]: > 43 µM
MIC [12]: > 43 µM
MIC [13]: 10.3 µM (≈ 25 µg/mL)
IC50 (CFPAC-1): > 7.5 µM
IC50 (MCF7): > 7.5 µM
IC50 [14]: > 7.5 µM
IC50 [15]: > 7.5 µM
IC50 [16]: > 7.5 µM
IC50 [17]: > 7.5 µM
IC50 [18]: > 7.5 µM
IC50 (A498): > 7.5 µM
IC50 [19]: > 7.5 µM
IC50 (A549): > 7.5 µM
IC50 (NCI-H69): > 7.5 µM
IC50 (RL): 6.8 µM
Ratio (Klebsiella aerogenes [20]): 1.075
Ratio (Acinetobacter baumannii [21]): 17.2
Ratio (Pseudomonas aeruginosa [22]): 0.2582

GENTAMICIN
MIC (Klebsiella aerogenes [1]): 1.04 µM
MIC (Acinetobacter baumannii [2]): 2.09 µM
MIC [23]: 2.09 µM
MIC (Pseudomonas aeruginosa [4]): 8.3 µM

— ChEMBL document CHEMBL3822432, “Antibacterial and anticancer activity of a series of novel peptides incorporating cyclic tetra-substituted C(α) amino acids” (Bioorg Med Chem, 2016)
